Laboratory results: US20130096067A1, “DROSOPHILA TUMOR STEM CELL MODEL AND USES THEREOF” (priority 2011, published 2013)
Square brackets hold non-standard residues; d marks the D form. Peptide text beside a SMILES is read from it. Phe(ol) = N[C@H](CO)Cc1ccccc1; Aib = CC(C)(N)C(=O)O

Tested on: Raf-1^gof intestinal tumors
Conditions: for Log2 (fold) (luciferase activity, log2 of the fold difference relative to DMSO controls) / Fold (luciferase activity, fold difference relative to DMSO controls): screen of 480 ICCB compounds in vials, compounds fed to flies with one-day old Raf-1^gof tumors, esg-Gal4 luciferase; for Log2 (fold) (luciferase activity, log2 of the fold difference relative to DMSO controls) / Fold (luciferase activity, fold difference relative to DMSO controls) / Log2 (fold) of luciferase activity relative to DMSO controls / Fold (luciferase activity relative to DMSO controls): assessed three days later; for Fold (luciferase activity, fold difference relative to DMSO controls) / Fold (luciferase activity relative to DMSO controls): averaged from multiple wells; for Log2 (fold) of luciferase activity relative to DMSO controls / Fold (luciferase activity relative to DMSO controls): ICCB compounds fed in vials to flies with one-day old Raf-1^gof tumors
Throughout, for Fold (luciferase activity relative to DMSO controls): test concentration or dose not given here.
Throughout, for Fold (luciferase activity, fold difference relative to DMSO controls): test concentration or dose not given here.
Throughout, for Log2 (fold) (luciferase activity, log2 of the fold difference relative to DMSO controls): test concentration or dose not given here.
Throughout, for Log2 (fold) of luciferase activity relative to DMSO controls: test concentration or dose not given here.

| Structure (SMILES) | Log2 (fold) (luciferase activity, log2 of the fold difference relative to DMSO controls) | Fold (luciferase activity, fold difference relative to DMSO controls) | Log2 (fold) of luciferase activity relative to DMSO controls | Fold (luciferase activity relative to DMSO controls) [fold] | Fold (Table 3 summary of hits, Screen ICCB, luciferase relative to DMSO, fed three consecutive days in vials) [fold] |
| --- | --- | --- | --- | --- | --- |
| COc1c(C=O)c(O)cc2c1C(=O)c1ccccc1C2=O [damnacanthal] | −0.482 | 0.716 |  |  |  |
| CCCCCCCCCCCC=CCC=CCCCC(=O)O [EICOSA-5,8-DIENOIC ACID (20:2 n-12)] |  |  | −0.149 | 0.902 |  |
| CN(CCc1ccc(Cl)c(Cl)c1)CC(O)COc1ccc(NS(C)(=O)=O)cc1 (stereo not shown) [AM 92016] | −0.341 | 0.789 |  |  |  |
| CC[C@@H]1/C=C(\C)C[C@H](C)C[C@H](OC)[C@H]2O[C@@](O)(C(=O)C(=O)N3CCCC[C@H]3C(=O)O[C@H](/C(C)=C/[C@@H]3CC[C@@H](O)[C@H](OC)C3)[C@H](C)[C@@H](O)CC1=O)[C@H](C)C[C@@H]2OC [ascomycin (FK-520)] |  |  | −0.035 | 0.976 |  |
| C#CCCCCCCCCCCCCCCCC(=O)O [17-OCTADECYNOIC ACID] | −0.358 | 0.780 |  |  |  |
| CCCCC/C=C\C/C=C\C/C=C\CCCCCCC(=O)NCCO [ANANDAMIDE (20:3, n-6)] | −0.653 | 0.636 |  |  |  |
| O=c1c2ccccc2[se]n1-c1ccccc1 [Ebselen] |  |  | −0.168 | 0.890 |  |
| CCCCC/C=C\C[C@@H](O)/C=C/C=C\C/C=C\CCCC(=O)O [12(R)-HETE] | −0.219 | 0.859 |  |  |  |
| CCCCCCCCCCCCCCCC(=O)OCC(COP(=O)(O)O)OC(=O)CCCCCCCCCCCCCCC (stereo not shown) [PHOSPHATIDIC ACID, DIPALMITOYL] | −0.288 | 0.819 |  |  |  |
| Cc1ccc(NC(=O)c2cccc(N(C)C)c2)cc1NC(=O)c1ccc(O)cc1 [ZM336372] | −0.338 | 0.791 |  |  |  |
| COc1ccc2cc1Oc1ccc(cc1)C[C@H]1c3cc(c(OC)cc3CCN1C)Oc1c(OC)c(OC)cc3c1[C@H](C2)N(C)CC3 [TETRANDRINE] | −0.318 | 0.802 |  |  |  |
| CO/C1=C\C(C)=C\[C@@H](C)[C@@H](O)[C@@H](C)C/C(C)=C/C=C/[C@H](OC)[C@@H]([C@@H](C)[C@@H](O)[C@H](C)[C@@]2(O)C[C@@H](O)[C@H](C)[C@@H](C(C)C)O2)OC1=O [bafilomycin A1] | −0.234 | 0.850 |  |  |  |
| CCCCCCCCCCCCCC(=O)N[C@H](C)[C@@H](O)c1ccccc1 [MAPP, D-erythro] | −0.266 | 0.832 |  |  |  |
| COC(=O)[C@@]1(O)C[C@H]2O[C@]1(C)n1c3ccccc3c3c4c(c5c6ccccc6n2c5c31)C(=O)NC4 [K252A] |  |  | 0.364 | 1.287 |  |
| COc1ccc(C2CNC(=O)C2)cc1OC1CCCC1 (stereo not shown) [Rolipram] | −0.414 | 0.750 |  |  |  |
| C=C(C)[C@@H]1CC[C@]2(C(=O)O)CC[C@]3(C)[C@H](CC[C@@H]4[C@@]5(C)CC[C@H](O)C(C)(C)[C@@H]5CC[C@]43C)[C@@H]12 [Betulinic acid] | −0.708 | 0.612 |  |  |  |
| [Cl-].c1ccc2c(c1)[I+]c1ccccc1-2 [diphenyleneiodonium Cl] | −0.576 | 0.671 |  |  |  |
| CC(=O)OCOC(=O)CN(CC(=O)OCOC(C)=O)c1ccccc1OCCOc1ccccc1N(CC(=O)OCOC(C)=O)CC(=O)OCOC(C)=O [BAPTA-AM] | −0.242 | 0.846 |  |  |  |
| CC(=O)N[C@@H](CSCC=C(C)CCC=C(C)CCC=C(C)C)C(=O)O [acetyl (N)-s-farnesyl-1-cysteine] |  |  | −0.036 | 0.975 |  |
| CCCCC[C@H](O)/C=C/C=C\CCCCCCCC(=O)O [13(S)-HODE] |  |  | −0.141 | 0.907 |  |
| O=C([O-])CCC/C=C\CC1C(O)CC(O)C1/C=C/C(O)COc1cccc(Cl)c1.[Na+] (stereo not shown) [CLOPROSTENOL Na] |  |  | 0.101 | 1.073 |  |

| Structure (SMILES) | Log2 (fold) (luciferase activity, log2 of the fold difference relative to DMSO controls) | Fold (luciferase activity, fold difference relative to DMSO controls) | Log2 (fold) of luciferase activity relative to DMSO controls | Fold (luciferase activity relative to DMSO controls) [fold] | Fold (Table 3 summary of hits, Screen ICCB, luciferase relative to DMSO, fed three consecutive days in vials) [fold] |
| --- | --- | --- | --- | --- | --- |
| CC1(COc2ccc(CC3SC(=O)NC3=O)cc2)CCCCC1 (stereo not shown) [CIGLITAZONE] |  |  | 0.038 | 1.027 |  |
| CC[C@H](C)C(=O)O[C@H]1C[C@@H](C)C=C2C=C[C@H](C)[C@H](CC[C@@H]3C[C@@H](O)CC(=O)O3)[C@H]21 [Mevinolin (lovastatin)] | −0.512 | 0.701 |  |  |  |
| N#Cc1c(-c2ccccc2)no[n+]1[O-] [Furoxan] | −0.280 | 0.823 |  |  |  |
| CCN(CC)CCCCCCCCOC(=O)c1cc(OC)c(OC)c(OC)c1 [TMB-8] | −0.325 | 0.798 |  |  |  |
| CCCCCCCCCCCCCCCCOC[C@H](COP(=O)([O-])OCC[N+](C)(C)C)OC(C)=O [PAF C16] |  |  | −0.190 | 0.876 |  |
| CCCCC[C@H](O)/C=C/[C@@H]1[C@@H](C/C=C\CCCC(=O)O)[C@H]2CO[C@@H]1C2 [U-46619] |  |  | −0.063 | 0.957 |  |
| OC[C@H]1NC[C@H](O)[C@@H](O)[C@@H]1O [deoxynorjrimycin(1)] |  |  | −0.154 | 0.899 |  |
| CCCCC[C@H](O)/C=C/[C@@H]1[C@@H](CCCCCCC(=O)O)[C@@H](O)C[C@H]1O [PROSTAGLANDIN F1a] |  |  | −0.208 | 0.866 |  |
| Cl.NC(=S)NCCCC(N)C(=O)O [Thiocitrulline [L-Thiocitrulline HCl]] |  |  | −0.170 | 0.889 |  |
| O=c1[nH]c2ccccc2n1C1CCN(CCCC(c2ccc(F)cc2)c2ccc(F)cc2)CC1 [PIMOZIDE] | −0.425 | 0.745 |  |  |  |
| CCCCCCCCCCCCC/C=C/[C@@H](O)[C@@H](N)CO [SPHINGOSINE] |  |  | −0.030 | 0.980 |  |
| CC(C)(C)n1nc(-c2ccc(Cl)cc2)c2c(N)ncnc21 [PP2] |  |  | 0.062 | 1.044 |  |
| CC(C)c1cccc(=O)c(O)c1 [Hinokitiol] | −0.240 | 0.847 |  |  |  |
| CC(=O)NC(C)(C)C(=O)N1CCC[C@H]1C(=O)NC(C)(C)C(=O)N[C@@H](C)C(=O)NC(C)(C)C(=O)N[C@@H](C)C(=O)N[C@@H](CCC(N)=O)C(=O)NC(C)(C)C(=O)N[C@H](C(=O)NC(C)(C)C(=O)NCC(=O)N[C@@H](CC(C)C)C(=O)NC(C)(C)C(=O)N1CCC[C@H]1C(=O)N[C@H](C(=O)NC(C)(C)C(=O)NC(C)(C)C(=O)N[C@@H](CCC(=O)O)C(=O)N[C@@H](CCC(N)=O)C(=O)N[C@H](CO)Cc1ccccc1)C(C)C)C(C)C [alamethicin, reference compound] (Ac-[Aib]P[Aib]A[Aib]AQ[Aib]V[Aib]GL[Aib]PV[Aib][Aib]EQ[Phe(ol)]) | −1.167 | 0.445 |  |  | 0.445 |
| C=C1CCC(O)C/C1=C\C=C1\CCCC2(C)C1CCC2C(C)CCC(O)C(C)(C)O (stereo not shown) [24,25-DIHYDROXYVITAMIN D3] | −0.363 | 0.777 |  |  |  |
| Cc1[nH]c(=O)c(C#N)cc1-c1ccncc1 [Milrinone] | −0.615 | 0.653 |  |  |  |
| CC(=O)N[C@@H](CC(C)C)C(=O)N[C@@H](CC(C)C)C(=O)N[C@H](C=O)CCCNC(=N)N [Leupeptin] |  |  | −0.038 | 0.974 |  |
| CCCCC[C@H](O)/C=C/[C@@H]1[C@H]2C/C(=C/CCCC(=O)O)C[C@H]2C[C@H]1O [CARBACYCLIN] | −0.283 | 0.822 |  |  |  |
| CCCCC/C=C\C/C=C\C/C=C\CCCCCCC(=O)O [DIHOMO-GAMMA-LINOLENIC ACID] |  |  | 0.323 | 1.251 |  |
| O=C1C2CCN(CC2)C1(CO)CO [PRIMA-1] |  |  | −0.110 | 0.926 |  |
| COc1cc2c(cc1OC)-c1c/c(=N\c3c(C)cc(C)cc3C)n(C)c(=O)n1CC2 [Trequinsin] | −0.279 | 0.824 |  |  |  |
